From PubChem BioAssay (NCI) come the findings set out here.

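Growth conditions: 96-well plates. Treatment: test compound, 48 hours, 5 concentrations. Analysis: linear interpolation between bracketing concentrations; unreached endpoints set to highest concentration. The concentration for full growth arrest is given as TGI.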

Some test systems named below: A549 NSCLC; HOP-92 NSCLC; LXFL 529 NSCLC; NCI-H23 lung; NCI-H522 lung; RXF 393 renal; SNB-78 CNS; SR leukemia; SW-620 colon.
Holding throughout (assay): NCI tumour cell line growth inhibition, 48 h

`CCOC(=O)C(NO)C(Sc1ccccc1)c1ccc(OC)cc1` (stereo not given): the TGI in the assay on A549 NSCLC is over 100 µM; in the assay with HOP-92 NSCLC, over 100 µM; in the assay with LXFL 529 NSCLC, over 100 µM; in the assay on NCI-H23 lung it was over 100 µM; with NCI-H522 lung it was over 100 µM; in the assay with RXF 393 renal, 52.3 µM. Moreover, the TGI in the assay on SNB-78 CNS, in the assay on SR leukemia and with SW-620 colon was over 100 µM throughout.
As for `COC(=O)C1C(=O)O[C@@H](c2ccc(OC)c(OC)c2OC)C1C(=O)OC` (mixture of isomers), the TGI in the assay on A549 NSCLC, in the assay with HOP-92 NSCLC, in the assay with LXFL 529 NSCLC, with NCI-H23 lung, in the assay with NCI-H522 lung and with RXF 393 renal was over 100 µM in each case. Moreover, the TGI with SNB-78 CNS, in the assay with SR leukemia and in the assay on SW-620 colon was over 100 µM throughout.
As for `COc1cc(-c2ccc(NC(=O)SCCC(=O)O)cc2OC)ccc1NC(=O)SCCC(=O)O`, the TGI with A549 NSCLC, in the assay with LXFL 529 NSCLC, in the assay with NCI-H23 lung, in the assay on NCI-H522 lung, with RXF 393 renal and in the assay with SNB-78 CNS was over 100 µM in each case. Moreover, the TGI in the assay on SR leukemia and in the assay on SW-620 colon was over 100 µM throughout.
For the molecule `COC1OC(CBr)C(OC(=O)c2ccccc2)C(OS(=O)(=O)c2ccc(C)cc2)C1Br` (stereo not given), the TGI in the assay on A549 NSCLC, in the assay with HOP-92 NSCLC, in the assay on LXFL 529 NSCLC, in the assay on NCI-H23 lung, in the assay with NCI-H522 lung and in the assay on RXF 393 renal was over 100 µM in each case. Further, the TGI with SNB-78 CNS, in the assay on SR leukemia and with SW-620 colon was over 100 µM each time.
Turning to `CC1CCC(=O)C(C(O)CC2CC(=O)N(c3ccccc3)C(=O)C2)C1` (stereo not given), the TGI in the assay with A549 NSCLC, in the assay on HOP-92 NSCLC, with LXFL 529 NSCLC, in the assay on NCI-H23 lung, in the assay on NCI-H522 lung and in the assay with RXF 393 renal was over 100 µM in each case. Besides, the TGI in the assay on SNB-78 CNS, in the assay on SR leukemia and in the assay on SW-620 colon was over 100 µM each time.
`O=C1C2c3[nH]c4ccccc4c3C3CCCCCC3C2C(=O)N1c1ccccc1` (stereo not given): the TGI is over 67.5 µM in the assay on A549 NSCLC; 74.7 µM in the assay with HOP-92 NSCLC; over 100 µM in the assay on LXFL 529 NSCLC; over 82.9 µM with NCI-H23 lung; over 100 µM in the assay on NCI-H522 lung; 37.7 µM with RXF 393 renal. Further, the TGI in the assay on SNB-78 CNS was 70.7 µM; with SR leukemia, over 53.9 µM; with SW-620 colon, over 100 µM.
As for `COc1ccc(-c2ccccc2)c2[nH]c3c(c12)CCNC3=O`, the TGI in the assay on A549 NSCLC, in the assay with HOP-92 NSCLC, in the assay on LXFL 529 NSCLC, with NCI-H23 lung, with NCI-H522 lung and in the assay with RXF 393 renal was over 100 µM throughout. Besides, the TGI in the assay with SNB-78 CNS, with SR leukemia and in the assay with SW-620 colon was over 100 µM throughout.
On to `CC1=C(C(=O)NCc2ccccc2)C(c2ccccc2C)C(C(=O)NCc2ccccc2)=C(C)N1`, for which the TGI with A549 NSCLC was over 100 µM; in the assay on HOP-92 NSCLC, over 86.8 µM; in the assay with LXFL 529 NSCLC, over 95.9 µM; with NCI-H23 lung, over 93.6 µM; in the assay with NCI-H522 lung, 66.2 µM; with RXF 393 renal, 43.7 µM. Moreover, the TGI is over 100 µM in the assay with SNB-78 CNS, 81.1 µM in the assay on SR leukemia and over 100 µM in the assay with SW-620 colon.
Regarding `CN(NC1OC(CO)C(O)C(O)C1O)c1ccccc1` (stereo not given), the TGI in the assay with A549 NSCLC, with HOP-92 NSCLC, with LXFL 529 NSCLC, in the assay with NCI-H23 lung, with NCI-H522 lung and with RXF 393 renal was over 100 µM throughout. In addition, the TGI in the assay with SNB-78 CNS, with SR leukemia and with SW-620 colon was over 100 µM each time.
Turning to `CN(C)CCn1cnc2ncccc2c1=O`, the TGI in the assay with A549 NSCLC, with HOP-92 NSCLC, in the assay with LXFL 529 NSCLC, with NCI-H23 lung, in the assay on NCI-H522 lung and in the assay on RXF 393 renal was over 100 µM in each case. Moreover, the TGI in the assay on SNB-78 CNS, with SR leukemia and in the assay with SW-620 colon was over 100 µM throughout.
Turning to `CN(C)C(=O)NC(=S)N(C)C`, the TGI in the assay with A549 NSCLC, with HOP-92 NSCLC, in the assay with LXFL 529 NSCLC, in the assay on NCI-H23 lung, with NCI-H522 lung and in the assay with RXF 393 renal was over 100 µM each time. Further, the TGI in the assay with SNB-78 CNS, in the assay with SR leukemia and in the assay with SW-620 colon was over 100 µM throughout.
Regarding `Clc1ccc(OCc2nnc3n2N=C(c2ccc(Br)cc2)CS3)cc1`, the TGI was over 100 µM in the assay with A549 NSCLC; 41 µM with HOP-92 NSCLC; 70.3 µM with LXFL 529 NSCLC; over 100 µM in the assay with NCI-H23 lung; 61.8 µM in the assay on RXF 393 renal; 81.1 µM with SNB-78 CNS. In addition, the TGI with SR leukemia and in the assay on SW-620 colon was over 100 µM each time.
Consider `CC(=O)OCC1OC(OCc2ccccc2)C(Br)C(OC(C)=O)C1OC(C)=O` (stereo not given), for which the TGI with A549 NSCLC, with HOP-92 NSCLC, in the assay with LXFL 529 NSCLC, in the assay with NCI-H23 lung, in the assay with NCI-H522 lung and with RXF 393 renal was over 100 µM each time. Further, the TGI with SNB-78 CNS, in the assay with SR leukemia and in the assay with SW-620 colon was over 100 µM throughout.
